From patent US9023986B2, “Glucose-dependent insulinotropic peptide analogs” (Hoffmann-La Roche Inc., priority 2010, dated 2015)

Biological target: T1, human GIPR (Homo sapiens, UniProt P48546)
T1 construct: host or cells: CHO-K1
T1 sequence (P48546 22-466): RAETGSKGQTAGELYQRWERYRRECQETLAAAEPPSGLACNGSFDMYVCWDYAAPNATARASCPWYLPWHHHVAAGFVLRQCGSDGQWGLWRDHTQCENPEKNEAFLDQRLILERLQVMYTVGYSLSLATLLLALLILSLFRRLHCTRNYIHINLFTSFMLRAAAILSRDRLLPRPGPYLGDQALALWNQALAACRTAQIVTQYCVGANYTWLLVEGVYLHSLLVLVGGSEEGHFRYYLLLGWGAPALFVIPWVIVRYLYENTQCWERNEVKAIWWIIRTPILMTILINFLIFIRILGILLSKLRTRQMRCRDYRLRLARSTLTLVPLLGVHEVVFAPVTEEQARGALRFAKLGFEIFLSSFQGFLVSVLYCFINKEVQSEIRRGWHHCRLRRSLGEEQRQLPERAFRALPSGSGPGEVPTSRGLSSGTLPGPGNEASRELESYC
Assay: cAMP production in CHO-K1 cells expressing human GIPR (LANCE cAMP assay)
Type: cell-based
Conditions: for Emax: CHO-K1, read-out: % activation of cAMP (maximal stimulation)
Description: CHO—K1 cells expressing human GIPR were obtained from DiscoverX Corporation (Fremont, Calif.). The cells were cultured in Ham's F-12 nutrient media supplemented with 10% foetal bovine serum, 800 μg/ml geneticin, 300 μg/ml hydromycin, 2 mM L-glutamine, and Penicillin-streptomycin (100 units, 100 μg) at 37° C. in a 5% CO2 incubator. The cells were harvested at 90% confluence.
The cells were suspended in Ham's F-12 nutrient media to a concentration of 200,000 cells/ml. The cells were then plated in a 384 well plate at with […] of the suspension added per well. The cells were incubated overnight at 37° C. in a 5% CO2 incubator.
The activity of the compounds was determined by stimulating the CHO—K1 cells with the test compound, and measuring the levels of cAMP produced. The activity of the compounds was compared to the activity of native GIP, as GIP stimulates cAMP production. 6 μl of the test compound in stimulation buffer (990 ml Hank's Balanced Salt solution (HBSS) (1×) (Invitrogen Corp #14025-092), 10 ml Hepes buffer solution (1 mol·L) (Invitrogen Corp 15630-080), 1 g BSA (final 0.1%), and 1 ml IBMX 250 mM stock prepared fresh in DMSO (Sigma-Aldrich 15879)) were added to cells, followed by 6 μl of Alexa Fluor® 647-anti cAMP antibody (Perkin Elmer) in stimulation buffer. […] The well plate was centrifuged for 3 min at 300 rpm, and incubated at room temperature for 45 minutes. 12 μl of detection mixture (biotin cAMP and EUW8044 labeled streptavidin (Eu-SA) in cAMP Detection Buffer (Perkin Elmer)) was added and incubated for 60 min at room temperature.
The levels of cAMP produced were measured according to the detailed protocol outlined in the Perkin Elmer LANCE cAMP Assay Perkin Elmer Lance cAMP Kit manual. The activity of the compounds was compared to the activity of native GIP.
The plates are read on a TRF detection instrument, EnVision® (Perkin Elmer) (excitation at 340 nm and emission at 665 nm). The values of the cAMP signal are obtained from the standard cAMP curve and used to determine the amount of maximal stimulation, and EC50 for stimulating the cAMP signal.

CC[C@H](C)[C@H](NC(=O)[C@H](CO)NC(=O)[C@H](Cc1ccc(O)cc1)NC(=O)[C@H](CC(=O)O)NC(=O)[C@H](CO)NC(=O)[C@@H](NC(=O)[C@H](Cc1ccccc1)NC(=O)[C@@H](NC(=O)CNC(=O)[C@H](CCC(=O)O)NC(=O)[C@H](C)NC(=O)[C@@H](Cc1ccc(Cl)cc1)NC(C)=O)[C@@H](C)O)[C@@H](C)CC)C(=O)N[C@@H](C)C(=O)N[C@@H](CCSC)C(=O)N[C@@H](CC(=O)O)C(=O)N[C@@H](CCCCN)C(=O)N[C@H](C(=O)N[C@@H](Cc1c[nH]cn1)C(=O)N[C@@H](CCC(N)=O)C(=O)N[C@@H](CCC(N)=O)C(=O)N[C@@H](CC(=O)O)C(=O)N[C@@H](Cc1ccccc1)C(=O)N[C@H](C(=O)N[C@@H](CC(N)=O)C(=O)N[C@@H](Cc1c[nH]c2ccccc12)C(=O)N[C@@H](CC(C)C)C(=O)N[C@@H](CC(C)C)C(=O)N[C@@H](C)C(=O)N[C@@H](CCC(N)=O)C(=O)N[C@@H](CCCCN)C(N)=O)C(C)C)[C@@H](C)CC [Example 14]
EC50: 0.025 nM | Emax: 106%

CC[C@H](C)[C@H](NC(=O)[C@H](CO)NC(=O)[C@H](Cc1ccc(O)cc1)NC(=O)[C@H](CC(=O)O)NC(=O)[C@H](CO)NC(=O)[C@@H](NC(=O)[C@H](Cc1ccccc1)NC(=O)[C@@H](NC(=O)CNC(=O)[C@H](CCC(=O)O)NC(=O)[C@H](C)NC(=O)[C@@H](Cc1ccccc1F)NC(C)=O)[C@@H](C)O)[C@@H](C)CC)C(=O)N[C@@H](C)C(=O)N[C@@H](CCSC)C(=O)N[C@@H](CC(=O)O)C(=O)N[C@@H](CCCCN)C(=O)N[C@H](C(=O)N[C@@H](Cc1c[nH]cn1)C(=O)N[C@@H](CCC(N)=O)C(=O)N[C@@H](CCC(N)=O)C(=O)N[C@@H](CC(=O)O)C(=O)N[C@@H](Cc1ccccc1)C(=O)N[C@H](C(=O)N[C@@H](CC(N)=O)C(=O)N[C@@H](Cc1c[nH]c2ccccc12)C(=O)N[C@@H](CC(C)C)C(=O)N[C@@H](CC(C)C)C(=O)N[C@@H](C)C(=O)N[C@@H](CCC(N)=O)C(=O)N[C@@H](CCCCN)C(N)=O)C(C)C)[C@@H](C)CC [Example 15]
EC50: 0.0075 nM | Emax: 99.8%

CC[C@H](C)[C@H](NC(=O)[C@H](CO)NC(=O)[C@H](Cc1ccc(O)cc1)NC(=O)[C@H](CC(=O)O)NC(=O)[C@H](CO)NC(=O)[C@@H](NC(=O)[C@H](Cc1ccccc1)NC(=O)[C@@H](NC(=O)CNC(=O)[C@H](CCC(=O)O)NC(=O)[C@H](C)NC(=O)[C@@H](Cc1cccc(F)c1)NC(C)=O)[C@@H](C)O)[C@@H](C)CC)C(=O)N[C@@H](C)C(=O)N[C@@H](CCSC)C(=O)N[C@@H](CC(=O)O)C(=O)N[C@@H](CCCCN)C(=O)N[C@H](C(=O)N[C@@H](Cc1c[nH]cn1)C(=O)N[C@@H](CCC(N)=O)C(=O)N[C@@H](CCC(N)=O)C(=O)N[C@@H](CC(=O)O)C(=O)N[C@@H](Cc1ccccc1)C(=O)N[C@H](C(=O)N[C@@H](CC(N)=O)C(=O)N[C@@H](Cc1c[nH]c2ccccc12)C(=O)N[C@@H](CC(C)C)C(=O)N[C@@H](CC(C)C)C(=O)N[C@@H](C)C(=O)N[C@@H](CCC(N)=O)C(=O)N[C@@H](CCCCN)C(N)=O)C(C)C)[C@@H](C)CC [Example 16]
EC50: 0.058 nM | Emax: 98%

CC[C@H](C)[C@H](NC(=O)[C@H](CO)NC(=O)[C@H](Cc1ccc(O)cc1)NC(=O)[C@H](CC(=O)O)NC(=O)[C@H](CO)NC(=O)[C@@H](NC(=O)[C@H](Cc1ccccc1)NC(=O)[C@@H](NC(=O)CNC(=O)[C@H](CCC(=O)O)NC(=O)[C@H](C)NC(=O)[C@@H](Cc1cc(F)cc(F)c1)NC(C)=O)[C@@H](C)O)[C@@H](C)CC)C(=O)N[C@@H](C)C(=O)N[C@@H](CCSC)C(=O)N[C@@H](CC(=O)O)C(=O)N[C@@H](CCCCN)C(=O)N[C@H](C(=O)N[C@@H](Cc1c[nH]cn1)C(=O)N[C@@H](CCC(N)=O)C(=O)N[C@@H](CCC(N)=O)C(=O)N[C@@H](CC(=O)O)C(=O)N[C@@H](Cc1ccccc1)C(=O)N[C@H](C(=O)N[C@@H](CC(N)=O)C(=O)N[C@@H](Cc1c[nH]c2ccccc12)C(=O)N[C@@H](CC(C)C)C(=O)N[C@@H](CC(C)C)C(=O)N[C@@H](C)C(=O)N[C@@H](CCC(N)=O)C(=O)N[C@@H](CCCCN)C(N)=O)C(C)C)[C@@H](C)CC [Example 17]
EC50: 0.003 nM | Emax: 99.6%

CC[C@H](C)[C@H](NC(=O)[C@H](CO)NC(=O)[C@H](Cc1ccc(O)cc1)NC(=O)[C@H](CC(=O)O)NC(=O)[C@H](CO)NC(=O)[C@@H](NC(=O)[C@H](Cc1ccccc1)NC(=O)[C@@H](NC(=O)CNC(=O)[C@H](CCC(=O)O)NC(=O)[C@H](C)NC(=O)[C@@H](Cc1cc(F)c(F)c(F)c1)NC(C)=O)[C@@H](C)O)[C@@H](C)CC)C(=O)N[C@@H](C)C(=O)N[C@@H](CCSC)C(=O)N[C@@H](CC(=O)O)C(=O)N[C@@H](CCCCN)C(=O)N[C@H](C(=O)N[C@@H](Cc1c[nH]cn1)C(=O)N[C@@H](CCC(N)=O)C(=O)N[C@@H](CCC(N)=O)C(=O)N[C@@H](CC(=O)O)C(=O)N[C@@H](Cc1ccccc1)C(=O)N[C@H](C(=O)N[C@@H](CC(N)=O)C(=O)N[C@@H](Cc1c[nH]c2ccccc12)C(=O)N[C@@H](CC(C)C)C(=O)N[C@@H](CC(C)C)C(=O)N[C@@H](C)C(=O)N[C@@H](CCC(N)=O)C(=O)N[C@@H](CCCCN)C(N)=O)C(C)C)[C@@H](C)CC [Example 18]
EC50: 0.104 nM | Emax: 100%

Ac-(D)Tyr-Ala-Glu-Gly-Thr-Phe-Ile-Ser-Asp-Tyr-Ser-Ile-Ala-Met-Asp-Lys-Ile-His-Gln-Gln-Asp-Phe-Val-Asn-Trp-Leu-Leu-Ala-Gln-Lys-NH2 [Example 6]
% activation of cAMP (maximal stimulation) (CHO-K1 cells expressing human GIPR, compared to native GIP): 102%
